Values quoted from earlier work in patent US20260345619A1 (Principia Biopharma Inc., priority 2023, published 2026).
Read-outs that look alike come from different tables or passages of the source.

Tests used:
[1] = tested on: 251 kinases sharing a common cysteine in their active site; details: 1 μM; panel of 251 kinases; cited from earlier work
[2] = cited from earlier work

C=CC(=O)N1CCC[C@@H](n2nc(-c3ccc(Oc4ccccc4)cc3)c3c(N)ncnc32)C1 [ibrutinib, reference compound]
number of kinases inhibited (>90% inhibition) [1]: 21 kinases

benralizumab: anti-IL5 receptor
efficacy ([2]; severe asthma, eosinophilic phenotype): have shown efficacy

omalizumab: anti-immunoglobulin E (IgE) agent
black box warning ([2]; in vivo): black box warning of potential for anaphylaxis
efficacy ([2]; severe, corticosteroid-refractory allergy-induced asthma): has shown efficacy
